Non-standard residues stand in square brackets, D forms with d. Residues, ends and D or L forms follow the SMILES beside them. *: point of attachment. Asp(3,3-(CH2)4) = N[C@H](C(=O)O)C1(C(=O)O)CCCC1; Dibenzylacetyl = O=C(C(Cc1ccccc1)Cc1ccccc1)*; Leu(γ-Me)ol = CC(C)(C)C[C@@H](CO)N*; Hydrocinnamoyl = O=C(CCc1ccccc1)*; tBuAla = CC(C)(C)C[C@H](N)C(=O)O; Butanoyl(2-Et) = CCC(CC)C(=O)*; Chg = N[C@H](C(=O)O)C1CCCCC1; Tle = CC(C)(C)[C@H](N)C(=O)O; NMeV = CN[C@H](C(=O)O)C(C)C; Leu(ol) = CC(C)C[C@H](N)CO; Pyrrolidide = C1CCN(*)C1; Abu = CC[C@H](N)C(=O)O
Experiments:
[1] = biological target: Ribonucleotide reductase large subunit (Herpes simplex virus 1); assay: In vitro inhibitory activity against HSV ribonucleotide reductase
[2] = biological target: Ribonucleotide reductase large subunit (Herpes simplex virus 2); assay: Inhibitory activity against HSV-2 in baby hamster kidney cell
[3] = biological target: Ribonucleotide reductase large subunit (Herpes simplex virus 1); assay: Inhibitory activity against HSV-1 in baby hamster kidney cell

Row | Structure (SMILES) | IC50 [1] [µM] | EC50 [2] [µM] | EC50 [3] [µM]
1 | CC(C)C[C@H](NC(=O)[C@H](CC(=O)O)NC(=O)[C@H](CC(N)=O)NC(=O)[C@@H](NC(=O)[C@@H](NC(=O)[C@@H](C)Cc1ccccc1)C(C)C)C(C)C)C(=O)O | 11 | – | –
2 | CCC(CC)C(=O)N[C@H](C(=O)N[C@@H](CC(=O)N1CCCC1)C(=O)N[C@H](C(=O)N[C@@H](CC(C)C)C(=O)O)C1(C(=O)O)CC=CC1)C(C)(C)C | 0.0064 | – | –
3 | CC(C)C[C@H](NC(=O)[C@H](CC(=O)O)NC(=O)[C@H](CC(N)=O)NC(=O)[C@@H](NC(=O)[C@@H](NC(=O)[C@H](C)Cc1ccccc1)C(C)C)C(C)C)C(=O)O | 0.86 | – | –
4 | CC(C)C[C@H](NC(=O)[C@H](CC(=O)O)NC(=O)[C@H](CC(N)=O)NC(=O)[C@@H](NC(=O)[C@@H](NC(=O)C(Cc1ccccc1)Cc1ccccc1)C(C)C)C(C)C)C(=O)O | 0.18 | – | –
5 | CC(C)C[C@H](NC(=O)[C@H](CC(=O)O)NC(=O)[C@H](CC(N)=O)NC(=O)[C@@H](NC(=O)[C@@H](NC(=O)CCc1ccccc1)C(C)C)C(C)C)C(=O)O | 4 | – | –
6 | CC(C)C[C@H](NC(=O)[C@H](CC(=O)O)NC(=O)[C@H](CC(N)=O)NC(=O)[C@@H](NC(=O)[C@H](C(C)C)N(C)C(=O)C(Cc1ccccc1)Cc1ccccc1)C(C)C)C(=O)O | 0.022 | – | –
7 | CC(=O)N[C@H](C(=O)N[C@H](C(=O)N[C@@H](CC(=O)N1CCCC1)C(=O)N[C@@H](CC(=O)O)C(=O)N[C@@H](CC(C)C)C(=O)O)C(C)C)C(C)C (Ac-VVD(Pyrrolidide)DL-OH) | 0.88 | – | –
8 | CC(C)C[C@H](NC(=O)[C@H](CC(=O)O)NC(=O)[C@H](CC(=O)N1CCCC1)NC(=O)[C@@H](NC(=O)[C@@H](NC(=O)C(Cc1ccccc1)Cc1ccccc1)C(C)C)C(C)C)C(=O)O (Dibenzylacetyl-VVD(Pyrrolidide)DL-OH) | 0.0007 | – | –
9 | CC(C)C[C@H](NC(=O)[C@H](CC(=O)O)NC(=O)[C@H](CC(=O)N1CCCC1)NC(=O)[C@@H](NC(=O)[C@H](C)NC(=O)CCc1ccccc1)C(C)C)C(=O)O (Hydrocinnamoyl-AVD(Pyrrolidide)DL-OH) | 8.8 | – | –
10 | CC(C)C[C@H](NC(=O)[C@H](CC(=O)O)NC(=O)[C@H](CC(=O)N1CCCC1)NC(=O)[C@@H](NC(=O)CNC(=O)CCc1ccccc1)C(C)C)C(=O)O (Hydrocinnamoyl-GVD(Pyrrolidide)DL-OH) | 115 | – | –
11 | CC[C@H](C)[C@H](NC(=O)CCc1ccccc1)C(=O)N[C@H](C(=O)N[C@@H](CC(=O)N1CCCC1)C(=O)N[C@@H](CC(=O)O)C(=O)N[C@@H](CC(C)C)C(=O)O)C(C)C (Hydrocinnamoyl-IVD(Pyrrolidide)DL-OH) | 0.061 | – | –
12 | CC(C)C[C@H](NC(=O)[C@H](CC(=O)O)NC(=O)[C@H](CC(=O)N1CCCC1)NC(=O)[C@@H](NC(=O)[C@@H](NC(=O)CCc1ccccc1)C(C)C)C(C)C)C(=O)O (Hydrocinnamoyl-VVD(Pyrrolidide)DL-OH) | 0.024 | – | –
13 | CC[C@H](NC(=O)CCc1ccccc1)C(=O)N[C@H](C(=O)N[C@@H](CC(=O)N1CCCC1)C(=O)N[C@@H](CC(=O)O)C(=O)N[C@@H](CC(C)C)C(=O)O)C(C)C (Hydrocinnamoyl-[Abu]VD(Pyrrolidide)DL-OH) | 0.34 | – | –
14 | CC(C)C[C@H](NC(=O)[C@H](CC(=O)O)NC(=O)[C@H](CC(=O)N1CCCC1)NC(=O)[C@@H](NC(=O)[C@@H](NC(=O)CCc1ccccc1)C1CCCCC1)C(C)C)C(=O)O (Hydrocinnamoyl-[Chg]VD(Pyrrolidide)DL-OH) | 0.022 | – | –
15 | CCC(CC)C(=O)N[C@H](C(=O)N[C@@H](CC(=O)N1CCCC1)C(=O)N[C@@H](CC(=O)O)C(=O)N[C@@H](CC(C)C)C(=O)O)C(C)C ({Butanoyl(2-Et)}-VD(Pyrrolidide)DL-OH) | 0.86 | – | –

Second part, the compound after the results:

Row | IC50 [1] [µM] | EC50 [2] [µM] | EC50 [3] [µM] | Structure (SMILES)
16 | – | 14 | 12 | CC(C)[C@H](NC(=O)C(Cc1ccccc1)Cc1ccccc1)C(=O)N[C@H](C(=O)N[C@@H](CC(=O)N1CCCC1)C(=O)N[C@H](C(=O)N[C@H](CO)CC(C)(C)C)C1(C(=O)O)CCCC1)C(C)(C)C (Dibenzylacetyl-V[Tle]D(Pyrrolidide)[Asp(3,3-(CH2)4)]-{Leu(γ-Me)ol})
17 | – | 6.5 | 7 | CC(C)[C@H](NC(=O)[C@H](C(C)C)N(C)C(=O)C(Cc1ccccc1)Cc1ccccc1)C(=O)N[C@@H](CC(=O)N1CCCC1)C(=O)N[C@H](C(=O)N[C@H](CO)CC(C)(C)C)C1(C(=O)O)CCCC1 (Dibenzylacetyl-[NMeV]VD(Pyrrolidide)[Asp(3,3-(CH2)4)]-{Leu(γ-Me)ol})
18 | – | 39 | 30 | CC(C)[C@@H](C(=O)N[C@H](C(=O)N[C@@H](CC(=O)N1CCCC1)C(=O)N[C@@H](CC(=O)O)C(=O)N[C@H](CO)CC(C)(C)C)C(C)(C)C)N(C)C(=O)C(Cc1ccccc1)Cc1ccccc1 (Dibenzylacetyl-[NMeV][Tle]D(Pyrrolidide)D-{Leu(γ-Me)ol})
19 | – | 4.2 | 3.1 | CC(C)[C@@H](C(=O)N[C@H](C(=O)N[C@@H](CC(=O)N1CCCC1)C(=O)N[C@H](C(=O)N[C@H](CO)CC(C)(C)C)C1(C(=O)O)CCCC1)C(C)(C)C)N(C)C(=O)C(Cc1ccccc1)Cc1ccccc1 (Dibenzylacetyl-[NMeV][Tle]D(Pyrrolidide)[Asp(3,3-(CH2)4)]-{Leu(γ-Me)ol})
20 | – | 7.3 | 7.3 | CC(C)C[C@@H](CO)NC(=O)[C@@H](NC(=O)[C@H](CC(=O)N1CCCC1)NC(=O)[C@@H](NC(=O)[C@H](C(C)C)N(C)C(=O)C(Cc1ccccc1)Cc1ccccc1)C(C)(C)C)C1(C(=O)O)CCCC1 (Dibenzylacetyl-[NMeV][Tle]D(Pyrrolidide)[Asp(3,3-(CH2)4)][Leu(ol)])
21 | – | 30 | 35 | CC(C)[C@@H](C(=O)N[C@H](C(=O)N[C@@H](CC(=O)N1CCCC1)C(=O)N[C@H](C(=O)N[C@@H](CC(C)(C)C)C(=O)O)C1(C(=O)O)CCCC1)C(C)(C)C)N(C)C(=O)C(Cc1ccccc1)Cc1ccccc1 (Dibenzylacetyl-[NMeV][Tle]D(Pyrrolidide)[Asp(3,3-(CH2)4)][tBuAla]-OH)
22 | – | 150 | 150 | CC(C)[C@@H](C(=O)N[C@H](C(=O)N[C@@H](CC(N)=O)C(=O)N[C@H](C(=O)N[C@H](CO)CC(C)(C)C)C1(C(=O)O)CCCC1)C(C)(C)C)N(C)C(=O)C(Cc1ccccc1)Cc1ccccc1 (Dibenzylacetyl-[NMeV][Tle]N[Asp(3,3-(CH2)4)]-{Leu(γ-Me)ol})
23 | 0.034 | – | – | CC(C)[C@H](NC(=O)CCc1ccccc1)C(=O)N[C@H](C(=O)N[C@@H](CC(=O)N1CCCC1)C(=O)N[C@@H](CC(=O)O)C(=O)N[C@H](CO)CC(C)(C)C)C(C)C (Hydrocinnamoyl-VVD(Pyrrolidide)D-{Leu(γ-Me)ol})
24 | 0.005 | – | – | CC(C)[C@H](NC(=O)CCc1ccccc1)C(=O)N[C@H](C(=O)N[C@@H](CC(=O)N1CCCC1)C(=O)N[C@@H](CC(=O)O)C(=O)N[C@@H](CC(C)(C)C)C(=O)O)C(C)C (Hydrocinnamoyl-VVD(Pyrrolidide)D[tBuAla]-OH)
25 | 0.001 | – | – | CC(C)C[C@H](NC(=O)[C@@H](NC(=O)[C@H](CC(=O)N1CCCC1)NC(=O)[C@@H](NC(=O)[C@@H](NC(=O)CCc1ccccc1)C(C)C)C(C)C)C1(C(=O)O)CCCC1)C(=O)O (Hydrocinnamoyl-VVD(Pyrrolidide)[Asp(3,3-(CH2)4)]L-OH)
26 | 0.004 | – | – | CC(C)C[C@H](NC(=O)[C@H](CC(=O)O)NC(=O)[C@H](CC(=O)N1CCCC1)NC(=O)[C@@H](NC(=O)[C@@H](NC(=O)CCc1ccccc1)C(C)C)C(C)(C)C)C(=O)O (Hydrocinnamoyl-V[Tle]D(Pyrrolidide)DL-OH)
27 | 0.0075 | – | – | CC(C)C[C@H](NC(=O)[C@H](CC(=O)O)NC(=O)[C@H](CC(=O)N1CCCC1)NC(=O)[C@@H](NC(=O)[C@H](C(C)C)N(C)C(=O)CCc1ccccc1)C(C)C)C(=O)O (Hydrocinnamoyl-[NMeV]VD(Pyrrolidide)DL-OH)
28 | – | 35 | 52 | CC(C)[C@@H](C(=O)N[C@H](C(=O)N[C@@H](CC(=O)N1CCCC1)C(=O)N[C@H](C(=O)N[C@H](CO)CC(C)(C)C)C1(C(=O)O)CCCC1)C(C)(C)C)N(C)C(=O)CCc1ccccc1 (Hydrocinnamoyl-[NMeV][Tle]D(Pyrrolidide)[Asp(3,3-(CH2)4)]-{Leu(γ-Me)ol})
29 | 0.036 | – | – | CC(C)C[C@H](NC(=O)[C@H](CC(=O)O)NC(=O)[C@H](CC(=O)N1CCCC1)NC(=O)[C@@H](NC(=O)[C@@H](NC(=O)CCc1ccccc1)C(C)(C)C)C(C)C)C(=O)O (Hydrocinnamoyl-[Tle]VD(Pyrrolidide)DL-OH)

From ChEMBL document CHEMBL1128692, “Peptidomimetic inhibitors of herpes simplex virus ribonucleotide reductase: a new class of antiviral agents” (J Med Chem, 1995)
